pIC50: −log10 of the molar value.
Tested on: 843126-344-R-J1-PDC complex spheroid viability
Experiment: Anticancer human tumor 843126-344-R-J1-PDC patient-derived melanoma cell line growth inhibition [POLQ]
Details: for pIC50: curve of first compound; for viability, T/C: stronger effect = lower value
Method in brief: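 Complex spheroid viability model combining PDC tumour cells with endothelial (HUVEC) and MSC stromal cells. Novobiocin, ART-558 or RP6685 were tested singly and in combination with standard and investigational anticancer drugs. Each was titrated in half-log steps from near clinical Cmax, or from 10 microM where Cmax was unknown.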

[1] = second compound 0.0316 µM, first compound 0.0316 µM
[2] = second compound 0.0316 µM, first compound 0.1 µM
[3] = second compound 0.0316 µM, first compound 0.316 µM
[4] = second compound 0.0316 µM, first compound 1 µM
[5] = second compound 0.0316 µM, first compound 3.16 µM
[6] = second compound 0.0316 µM, first compound 10 µM
[7] = second compound 0.1 µM, first compound 0.0316 µM
[8] = second compound 0.1 µM, first compound 0.1 µM
[9] = second compound 0.1 µM, first compound 0.316 µM
[10] = second compound 0.1 µM, first compound 1 µM
[11] = second compound 0.1 µM, first compound 3.16 µM
[12] = second compound 0.1 µM, first compound 10 µM
[13] = second compound 0.316 µM, first compound 0.0316 µM
[14] = second compound 0.316 µM, first compound 0.1 µM
[15] = second compound 0.316 µM, first compound 0.316 µM
[16] = second compound 0.316 µM, first compound 1 µM
[17] = second compound 0.316 µM, first compound 3.16 µM
[18] = second compound 0.316 µM, first compound 10 µM
[19] = second compound 1 µM, first compound 0.0316 µM
[20] = second compound 1 µM, first compound 0.1 µM
[21] = second compound 1 µM, first compound 0.316 µM
[22] = second compound 1 µM, first compound 1 µM
[23] = second compound 1 µM, first compound 3.16 µM
[24] = second compound 1 µM, first compound 10 µM
[25] = second compound 3.16 µM, first compound 0.0316 µM
[26] = second compound 3.16 µM, first compound 0.1 µM
[27] = second compound 3.16 µM, first compound 0.316 µM
[28] = second compound 3.16 µM, first compound 1 µM
[29] = second compound 3.16 µM, first compound 3.16 µM
[30] = second compound 3.16 µM, first compound 10 µM
[31] = second compound 10 µM, first compound 0.0316 µM
[32] = second compound 10 µM, first compound 0.1 µM
[33] = second compound 10 µM, first compound 0.316 µM
[34] = second compound 10 µM, first compound 1 µM
[35] = second compound 10 µM, first compound 3.16 µM
[36] = second compound 10 µM, first compound 10 µM
[37] = second compound 0.0316 µM, first compound 0.00316 µM
[38] = second compound 0.0316 µM, first compound 0.01 µM
[39] = second compound 0.1 µM, first compound 0.00316 µM
[40] = second compound 0.1 µM, first compound 0.01 µM
[41] = second compound 0.316 µM, first compound 0.00316 µM
[42] = second compound 0.316 µM, first compound 0.01 µM
[43] = second compound 1 µM, first compound 0.00316 µM
[44] = second compound 1 µM, first compound 0.01 µM
[45] = second compound 3.16 µM, first compound 0.00316 µM
[46] = second compound 3.16 µM, first compound 0.01 µM
[47] = second compound 10 µM, first compound 0.00316 µM
[48] = second compound 10 µM, first compound 0.01 µM
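For viability, T/C in this document: spheroids exposed to drugs for seven days before readout.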

SMILES: CC1COCCN1c1cc(C2(S(C)(=N)=O)CC2)nc(-c2ccnc3[nH]ccc23)n1 (stereo not drawn) + Nc1ccc(C#CCN(C(=O)Cc2ncc(C(F)(F)F)cc2C(F)(F)F)c2ccc(F)cc2)nn1
- pIC50 (second compound 0.0316 µM): < 5.00
- pIC50 (second compound 0.1 µM): < 5.00
- pIC50 (second compound 0.316 µM): 5.01
- pIC50 (second compound 1 µM): < 5.00
- pIC50 (second compound 3.16 µM): < 5.00
- pIC50 (second compound 10 µM): < 5.00
- viability, T/C [1]: 101%
- viability, T/C [2]: 84.8%
- viability, T/C [3]: 86.6%
- viability, T/C [4]: 76.9%
- viability, T/C [5]: 72.7%
- viability, T/C [6]: 51.6%
- viability, T/C [7]: 84.8%
- viability, T/C [8]: 90.2%
- viability, T/C [9]: 88.8%
- viability, T/C [10]: 103%
- viability, T/C [11]: 76.1%
- viability, T/C [12]: 55.8%
- viability, T/C [13]: 88.4%
- viability, T/C [14]: 92.1%
- viability, T/C [15]: 82.3%
- viability, T/C [16]: 77.5%
- viability, T/C [17]: 70%
- viability, T/C [18]: 49.2%
- viability, T/C [19]: 96.2%
- viability, T/C [20]: 92.8%
- viability, T/C [21]: 86.3%
- viability, T/C [22]: 90.5%
- viability, T/C [23]: 76.3%
- viability, T/C [24]: 51.8%
- viability, T/C [25]: 89.9%
- viability, T/C [26]: 84%
- viability, T/C [27]: 89%
- viability, T/C [28]: 86.1%
- viability, T/C [29]: 69.8%
- viability, T/C [30]: 53.8%
- viability, T/C [31]: 94.6%
- viability, T/C [32]: 84%
- viability, T/C [33]: 81.5%
- viability, T/C [34]: 75.1%
- viability, T/C [35]: 65.2%
- viability, T/C [36]: 51.8%

SMILES: CCCS(=O)(=O)Nc1ccc(F)c(C(=O)c2c[nH]c3ncc(-c4ccc(Cl)cc4)cc23)c1F + Nc1ccc(C#CCN(C(=O)Cc2ncc(C(F)(F)F)cc2C(F)(F)F)c2ccc(F)cc2)nn1
- pIC50 (second compound 0.0316 µM): < 5.00
- pIC50 (second compound 0.1 µM): < 5.00
- pIC50 (second compound 0.316 µM): < 5.00
- pIC50 (second compound 1 µM): < 5.00
- pIC50 (second compound 3.16 µM): < 5.00
- pIC50 (second compound 10 µM): < 5.00
- viability, T/C [1]: 86%
- viability, T/C [2]: 92.7%
- viability, T/C [3]: 98.9%
- viability, T/C [4]: 77.9%
- viability, T/C [5]: 77.5%
- viability, T/C [6]: 86.7%
- viability, T/C [7]: 82%
- viability, T/C [8]: 91.8%
- viability, T/C [9]: 82.8%
- viability, T/C [10]: 82.3%
- viability, T/C [11]: 78.1%
- viability, T/C [12]: 57.4%
- viability, T/C [13]: 85.8%
- viability, T/C [14]: 92.8%
- viability, T/C [15]: 88.9%
- viability, T/C [16]: 87.4%
- viability, T/C [17]: 77.5%
- viability, T/C [18]: 82%
- viability, T/C [19]: 93.5%
- viability, T/C [20]: 91.8%
- viability, T/C [21]: 71%
- viability, T/C [22]: 85.5%
- viability, T/C [23]: 77.2%
- viability, T/C [24]: 76.2%
- viability, T/C [25]: 86.4%
- viability, T/C [26]: 105%
- viability, T/C [27]: 95.2%
- viability, T/C [28]: 78%
- viability, T/C [29]: 62.7%
- viability, T/C [30]: 63.4%
- viability, T/C [31]: 93.3%
- viability, T/C [32]: 79.9%
- viability, T/C [33]: 79.7%
- viability, T/C [34]: 82.3%
- viability, T/C [35]: 74%
- viability, T/C [36]: 75.4%

SMILES: COc1cccc(OCCCN)c1-c1cc(Nc2cnc(C#N)cn2)n[nH]1 + Nc1ccc(C#CCN(C(=O)Cc2ncc(C(F)(F)F)cc2C(F)(F)F)c2ccc(F)cc2)nn1
- pIC50 (second compound 0.0316 µM): 7.24
- pIC50 (second compound 0.1 µM): 7.07
- pIC50 (second compound 0.316 µM): 7.04
- pIC50 (second compound 1 µM): 7.01
- pIC50 (second compound 3.16 µM): 7.59
- pIC50 (second compound 10 µM): 7.27
- viability, T/C [37]: 92%
- viability, T/C [38]: 78.5%
- viability, T/C [1]: 53.1%
- viability, T/C [2]: 47.3%
- viability, T/C [3]: 40%
- viability, T/C [4]: 35.5%
- viability, T/C [39]: 91.9%
- viability, T/C [40]: 71.2%
- viability, T/C [7]: 53%
- viability, T/C [8]: 53.9%
- viability, T/C [9]: 45.1%
- viability, T/C [10]: 32.1%
- viability, T/C [41]: 92.9%
- viability, T/C [42]: 72.5%
- viability, T/C [13]: 59.6%
- viability, T/C [14]: 50%
- viability, T/C [15]: 42.2%
- viability, T/C [16]: 35.1%
- viability, T/C [43]: 89.8%
- viability, T/C [44]: 72.6%
- viability, T/C [19]: 59.6%
- viability, T/C [20]: 49.2%
- viability, T/C [21]: 43.8%
- viability, T/C [22]: 29.3%
- viability, T/C [45]: 87.2%
- viability, T/C [46]: 74.6%
- viability, T/C [25]: 44.3%
- viability, T/C [26]: 41.2%
- viability, T/C [27]: 38.6%
- viability, T/C [28]: 38.8%
- viability, T/C [47]: 84.8%
- viability, T/C [48]: 66.8%
- viability, T/C [31]: 51.9%
- viability, T/C [32]: 45.8%
- viability, T/C [33]: 42.8%
- viability, T/C [34]: 30.4%

SMILES: Cn1ncnc1[C@H]1c2n[nH]c(=O)c3cc(F)cc(c23)N[C@@H]1c1ccc(F)cc1 + Nc1ccc(C#CCN(C(=O)Cc2ncc(C(F)(F)F)cc2C(F)(F)F)c2ccc(F)cc2)nn1
- pIC50 (second compound 0.0316 µM): < 7.00
- pIC50 (second compound 0.1 µM): < 7.00
- pIC50 (second compound 0.316 µM): < 7.00
- pIC50 (second compound 1 µM): < 7.00
- pIC50 (second compound 3.16 µM): < 7.00
- pIC50 (second compound 10 µM): < 7.00
- viability, T/C (second compound 0.0316 µM, first compound 0.000316 µM): 87.1%
- viability, T/C (second compound 0.0316 µM, first compound 0.001 µM): 93.9%
- viability, T/C [37]: 101%
- viability, T/C [38]: 93.4%
- viability, T/C [1]: 96.1%
- viability, T/C [2]: 82.6%
- viability, T/C (second compound 0.1 µM, first compound 0.000316 µM): 89%
- viability, T/C (second compound 0.1 µM, first compound 0.001 µM): 91.7%
- viability, T/C [39]: 107%
- viability, T/C [40]: 96.2%
- viability, T/C [7]: 99.7%
- viability, T/C [8]: 97.7%
- viability, T/C (second compound 0.316 µM, first compound 0.000316 µM): 108%
- viability, T/C (second compound 0.316 µM, first compound 0.001 µM): 93.3%
- viability, T/C [41]: 111%
- viability, T/C [42]: 93.2%
- viability, T/C [13]: 99.8%
- viability, T/C [14]: 99.8%
- viability, T/C (second compound 1 µM, first compound 0.000316 µM): 97.3%
- viability, T/C (second compound 1 µM, first compound 0.001 µM): 102%
- viability, T/C [43]: 87.9%
- viability, T/C [44]: 106%
- viability, T/C [19]: 104%
- viability, T/C [20]: 73.1%
- viability, T/C (second compound 3.16 µM, first compound 0.000316 µM): 93.3%
- viability, T/C (second compound 3.16 µM, first compound 0.001 µM): 102%
- viability, T/C [45]: 88%
- viability, T/C [46]: 95.7%
- viability, T/C [25]: 102%
- viability, T/C [26]: 94.8%
- viability, T/C (second compound 10 µM, first compound 0.000316 µM): 101%
- viability, T/C (second compound 10 µM, first compound 0.001 µM): 83.6%
- viability, T/C [47]: 97%
- viability, T/C [48]: 89.5%
- viability, T/C [31]: 88.6%
- viability, T/C [32]: 80.2%
